Data reported in patent US10968215B2 (SHANGHAI HAIHE PHARMACEUTICAL CO., LTD., priority 2016, dated 2021).

What follows are molecules tested against PRC2 complex (EZH2 Y641F/EED/SUZ12/RbAp48/AEBP2) (Homo sapiens (Human), UniProt Q15910, Y641F) (assay: Activity of a compound to PRC2 complex (EZH2 Y641F), HTRF). Details: not given.
Sequence of PRC2 complex (EZH2 Y641F/EED/SUZ12/RbAp48/AEBP2) (Q15910 whole entry Y641F): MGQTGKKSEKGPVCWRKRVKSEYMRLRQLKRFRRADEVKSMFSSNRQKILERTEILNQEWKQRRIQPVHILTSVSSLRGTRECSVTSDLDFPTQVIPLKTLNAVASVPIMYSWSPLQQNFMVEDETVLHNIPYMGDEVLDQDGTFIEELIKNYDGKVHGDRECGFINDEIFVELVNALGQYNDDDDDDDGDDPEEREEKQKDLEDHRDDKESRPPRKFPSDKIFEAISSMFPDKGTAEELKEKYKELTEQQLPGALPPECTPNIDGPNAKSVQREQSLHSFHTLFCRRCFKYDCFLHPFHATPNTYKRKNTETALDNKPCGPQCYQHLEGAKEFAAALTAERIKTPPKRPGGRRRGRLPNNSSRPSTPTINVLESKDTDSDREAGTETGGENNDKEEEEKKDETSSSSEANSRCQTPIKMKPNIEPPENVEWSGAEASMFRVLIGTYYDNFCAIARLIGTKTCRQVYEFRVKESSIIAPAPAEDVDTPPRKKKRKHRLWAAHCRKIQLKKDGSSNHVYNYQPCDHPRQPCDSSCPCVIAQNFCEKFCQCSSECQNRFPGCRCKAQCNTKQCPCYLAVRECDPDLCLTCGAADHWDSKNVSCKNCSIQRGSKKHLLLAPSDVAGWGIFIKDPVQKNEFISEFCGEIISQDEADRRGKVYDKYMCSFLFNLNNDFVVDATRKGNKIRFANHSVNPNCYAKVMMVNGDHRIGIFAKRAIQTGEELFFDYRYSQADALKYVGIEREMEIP
Sequence of PRC2 complex (EZH2 Y641F/EED/SUZ12/RbAp48/AEBP2) (O75530 whole entry partner): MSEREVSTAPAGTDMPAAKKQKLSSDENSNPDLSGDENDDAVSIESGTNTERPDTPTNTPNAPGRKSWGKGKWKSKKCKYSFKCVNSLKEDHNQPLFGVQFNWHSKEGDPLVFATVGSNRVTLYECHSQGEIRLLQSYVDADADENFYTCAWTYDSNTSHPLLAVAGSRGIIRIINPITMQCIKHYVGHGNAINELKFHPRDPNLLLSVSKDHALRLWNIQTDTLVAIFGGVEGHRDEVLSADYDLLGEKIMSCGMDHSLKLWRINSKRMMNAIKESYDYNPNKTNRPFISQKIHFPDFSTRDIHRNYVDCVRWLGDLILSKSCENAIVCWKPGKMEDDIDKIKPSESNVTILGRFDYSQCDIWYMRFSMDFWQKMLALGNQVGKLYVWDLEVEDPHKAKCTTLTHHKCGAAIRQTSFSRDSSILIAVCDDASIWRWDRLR
Sequence of PRC2 complex (EZH2 Y641F/EED/SUZ12/RbAp48/AEBP2) (Q15022 whole entry partner): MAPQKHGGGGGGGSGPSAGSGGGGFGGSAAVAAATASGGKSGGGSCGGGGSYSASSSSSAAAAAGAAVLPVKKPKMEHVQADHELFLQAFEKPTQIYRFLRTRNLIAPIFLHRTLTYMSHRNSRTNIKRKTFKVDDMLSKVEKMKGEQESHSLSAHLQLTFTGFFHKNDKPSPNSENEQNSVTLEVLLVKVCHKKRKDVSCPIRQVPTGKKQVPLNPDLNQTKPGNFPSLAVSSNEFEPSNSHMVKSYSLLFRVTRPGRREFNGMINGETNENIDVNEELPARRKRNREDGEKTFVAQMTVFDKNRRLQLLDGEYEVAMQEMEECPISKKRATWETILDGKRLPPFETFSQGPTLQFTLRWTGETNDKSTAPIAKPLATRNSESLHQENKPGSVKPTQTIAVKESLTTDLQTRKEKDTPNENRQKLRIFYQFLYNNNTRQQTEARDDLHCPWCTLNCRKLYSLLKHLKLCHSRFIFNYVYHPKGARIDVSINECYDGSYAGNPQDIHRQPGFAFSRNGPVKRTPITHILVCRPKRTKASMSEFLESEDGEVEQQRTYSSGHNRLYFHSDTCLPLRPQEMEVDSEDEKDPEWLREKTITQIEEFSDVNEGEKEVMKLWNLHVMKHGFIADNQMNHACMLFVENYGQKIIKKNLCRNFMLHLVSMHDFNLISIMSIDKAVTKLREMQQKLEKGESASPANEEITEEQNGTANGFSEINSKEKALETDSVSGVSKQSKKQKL
Sequence of PRC2 complex (EZH2 Y641F/EED/SUZ12/RbAp48/AEBP2) (Q09028 whole entry partner): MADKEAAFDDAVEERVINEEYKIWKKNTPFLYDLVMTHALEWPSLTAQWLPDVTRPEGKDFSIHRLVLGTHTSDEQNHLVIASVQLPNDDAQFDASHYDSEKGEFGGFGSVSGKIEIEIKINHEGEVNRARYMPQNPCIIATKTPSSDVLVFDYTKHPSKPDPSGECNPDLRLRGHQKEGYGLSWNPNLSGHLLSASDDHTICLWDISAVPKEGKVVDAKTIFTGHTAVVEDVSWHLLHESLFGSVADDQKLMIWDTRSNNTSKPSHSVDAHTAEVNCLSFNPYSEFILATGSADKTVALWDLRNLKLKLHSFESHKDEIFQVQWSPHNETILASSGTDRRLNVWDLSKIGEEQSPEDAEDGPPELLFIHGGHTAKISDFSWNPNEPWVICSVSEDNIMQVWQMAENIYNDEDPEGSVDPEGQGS
Sequence of PRC2 complex (EZH2 Y641F/EED/SUZ12/RbAp48/AEBP2) (Q6ZN18 whole entry partner): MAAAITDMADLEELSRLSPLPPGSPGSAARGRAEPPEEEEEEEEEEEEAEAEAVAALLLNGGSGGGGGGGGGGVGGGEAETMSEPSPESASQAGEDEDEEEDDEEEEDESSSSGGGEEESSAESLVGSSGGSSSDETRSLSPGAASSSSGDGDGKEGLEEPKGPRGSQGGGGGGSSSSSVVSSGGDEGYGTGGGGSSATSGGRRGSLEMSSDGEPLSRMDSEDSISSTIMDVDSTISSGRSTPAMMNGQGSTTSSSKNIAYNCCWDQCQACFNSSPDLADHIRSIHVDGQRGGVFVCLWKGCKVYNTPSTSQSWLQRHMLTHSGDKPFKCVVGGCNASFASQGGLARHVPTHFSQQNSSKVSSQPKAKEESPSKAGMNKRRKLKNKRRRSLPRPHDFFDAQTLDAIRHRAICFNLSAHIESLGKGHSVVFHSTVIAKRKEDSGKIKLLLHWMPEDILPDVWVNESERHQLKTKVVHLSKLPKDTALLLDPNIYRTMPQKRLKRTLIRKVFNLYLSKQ
`Cc1cc(C)c(CNC(=O)c2cc3cc(-c4nccn4C)cn3c(C(C)N3CCOCC3)c2C)c(=O)[nH]1` (stereo not drawn) [Example 79, N-((4,6-dimethyl-2-oxo-1,2-dihydropyridin-3-yl)methyl)-6-methyl-2-(1-methyl-1H-imidazole-2-yl)-5-(1-morpholinoethyl)indolizine-7-carboxamide] was tested, and the IC50 was < 100 nM. For `Cc1cc(C)c(CNC(=O)c2cc3cc(-c4ccncc4)cn3c(C(C)N3CCC(N(C)C)CC3)c2C)c(=O)[nH]1` (stereo not drawn) [Example 93, N-((4,6-dimethyl-2-oxo-1,2-dihydropyridin-3-yl)methyl)-5-(1-(4-(dimethylamino)piperidine-1-yl)ethyl)-6-methyl-2-(pyridin-4-yl)indolizine-7-carboxamide], the IC50 was < 100 nM. In the case of `COc1ccc(-c2cc3cc(C(=O)NCc4c(C)cc(C)[nH]c4=O)c(C)c(C(C)N4CCOCC4)n3c2)cc1` (stereo not drawn) [Example 97, N-((4,6-dimethyl-2-oxo-1,2-dihydropyridin-3-yl)methyl)-2-(4-methoxyphenyl)-6-methyl-5-(1-morpholinoethyl)indolizine-7-carboxamide], the IC50 is reported as 100 to 1000 nM. In the case of `Cc1cc(C)c(CNC(=O)c2cc3cc(Br)cn3c(C(C)N3CCNCC3)c2C)c(=O)[nH]1` (stereo not drawn) [Example 100], the IC50 is reported as 100 to 1000 nM. In the case of `Cc1cc(C)c(CNC(=O)c2cc3cc(Br)cn3c(C(C)N3CCN(S(C)(=O)=O)CC3)c2C)c(=O)[nH]1` (stereo not drawn) [Example 103, 2-bromo-N-((4,6-dimethyl-2-oxo-1,2-dihydropyridin-3-yl)methyl)-6-methyl-5-(1-(4-(methylsulfonyl)piperazin-1-yl)ethyl)indolizine-7-carboxamide], the IC50 is reported as 100 to 1000 nM.

Same assay, conditions: read-out: IC50 (EZH2_Y641F); EZH2 Y641F PRC2 complex, HTRF; class symbols
With `Cc1cc(C)c(CNC(=O)c2cc3cc(-c4ccn(C)n4)cn3c(C(C)N3CCC(N(C)C)CC3)c2C)c(=O)[nH]1` (stereo not drawn) [Example 76] the IC50 was 100 to 1000 nM. With `Cc1cc(C)c(CNC(=O)c2cc3cc(-c4ccn(C)n4)cn3c(C(C)N3CCC(N(C)C)CC3)c2C)c(=O)[nH]1` (stereo not drawn) [Example 77, N-((4,6-dimethyl-2-oxo-1,2-dihydropyridin-3-yl)methyl)-5-(1-(4-(dimethylamino)piperidine-1-yl)ethyl)-6-methyl-2-(1-methyl-1H-pyrazol-3-yl)indolizin-7-carboxamide] the IC50 was < 100 nM. In the case of `Cc1cc(C)c(CNC(=O)c2cc3cc(-c4cccc(CN5CCOCC5)c4)cn3c(C(C)N3CCOCC3)c2C)c(=O)[nH]1` (stereo not drawn) [Example 80, N-((4,6-dimethyl-2-oxo-1,2-dihydropyridin-3-yl)methyl)-5-(1-morpholine-1-ethyl)-6-methyl-2-(3-(morpholinemethylene)phenyl)indolizin-7-amide], the IC50 is reported as 100 to 1000 nM. With `Cc1cc(C)c(CNC(=O)c2cc3c(-c4ccccc4)ccn3c(C(C)N3CCOCC3)c2C)c(=O)[nH]1` (stereo not drawn) [Example 81] the IC50 was < 100 nM. For `Cc1cc(C)c(CNC(=O)c2cc3c(-c4ccccc4)ccn3c(C(C)N3CCOCC3)c2C)c(=O)[nH]1` (stereo not drawn) [Example 82, N-((4,6-dimethyl-2-oxo-1,2-dihydropyridin-3-yl)methyl)-6-methyl-5-(1-morphinolinylethyl)-1-phenylindolizine-7-carboxamide], the IC50 was < 100 nM. In the case of `COc1cc(C)[nH]c(=O)c1CNC(=O)c1cc2cc(-c3ccnn3C)cn2c(C(C)N2CCN(CC(F)(F)F)CC2)c1C` (stereo not drawn) [Example 83, N-((4-methoxy-6-methyl-2-oxo-1,2-dihydropyridin-3-yl)methyl)-6-methyl-2-(1-methyl-1H-pyrazol-5-yl)-5-(1-(4-(2,2,2-trifluoroethyl)piperazin-1-yl)ethyl)indolizine-7-carboxamide], the IC50 is reported as < 100 nM. For `Cc1cc(C)c(CNC(=O)c2cc3cc(-c4ccnn4C)cn3c(C(C)N3CCN(CC(F)(F)F)CC3)c2C)c(=O)[nH]1` (stereo not drawn) [Example 84, N-((4,6-dimethyl-2-oxo-1,2-dihydropyridin-3-yl)methyl)-6-methyl-2-(1-methyl-1H-pyrazole-5-yl)-5-(1-(4-(2,2,2-trifluoroethyl)piperazin-1-yl)ethyl)indolizine-7-carboxamide], the IC50 was 100 to 1000 nM. For `Cc1cc(C)c(CNC(=O)c2cc3cc(-c4ccn(C)n4)cn3c(C(C)N3CCOCC3)c2C)c(=O)[nH]1` (stereo not drawn) [Example 85, N-((4,6-dimethyl-2-oxo-1,2-dihydropyridin-3-yl)methyl)-6-methyl-2-(1-methyl-1H-pyrazole-3-yl)-5-(1-morpholinoethyl)indolizine-7-carboxamide], the IC50 was 100 to 1000 nM. For `Cc1cc(C)c(CNC(=O)c2cc3cc(-c4cncn4C)cn3c(C(C)N3CCOCC3)c2C)c(=O)[nH]1` (stereo not drawn) [Example 86, N-((4,6-dimethyl-2-oxo-1,2-dihydropyridin-3-yl)methyl)-6-methyl-2-(1-methyl-1H-imidazole-5-yl)-5-(1-morpholinoethyl)indolizine-7-carboxamide], the IC50 was < 100 nM. In the case of `Cc1cc(C)c(CNC(=O)c2cc3cc(-c4ccc(N)nc4)cn3c(C(C)N3CCOCC3)c2C)c(=O)[nH]1` (stereo not drawn) [Example 89, 2-(6-aminopyridin-3-yl)-N-((4,6-dimethyl-2-oxo-1,2-dihydropyridin-3-yl)methyl)-6-methyl-5-(1-morpholinylethyl)indolizine-7-amide], the IC50 is reported as < 100 nM. Work on `Cc1cc(C)c(CNC(=O)c2cc3cc(-c4ccc(N5CCNCC5)nc4)cn3c(C(C)N3CCOCC3)c2C)c(=O)[nH]1` (stereo not drawn) [Example 90, N-((4,6-dimethyl-2-oxo-1,2-dihydropyridin-3-yl)methyl)-6-methyl-5-(1-morpholinoethyl)-2-(6-(piperazin-1-yl)pyridin-3-yl)indolizine-7-carboxamide] yielded an IC50 of 1000 to 10000 nM. With `Cc1cc(C)c(CNC(=O)c2cc3cc(-c4ccc(N5CCN(C)CC5)nc4)cn3c(C(C)N3CCOCC3)c2C)c(=O)[nH]1` (stereo not drawn) [Example 91] the IC50 was < 100 nM. With `COc1cc(-c2cc3cc(C(=O)NCc4c(C)cc(C)[nH]c4=O)c(C)c(C(C)N4CCC(N(C)C)CC4)n3c2)cc(OC)c1OC` (stereo not drawn) [Example 92, N-((4,6-dimethyl-2-oxo-1,2-dihydropyridin-3-yl)methyl)-5-(1-(4-(dimethylamino)piperidine-1-yl)ethyl)-6-methyl-2-(3,4,5-trimethoxyphenyl)-indolizine-7-carboxamide] the IC50 was < 100 nM. `COc1cccc(-c2cc3cc(C(=O)NCc4c(C)cc(C)[nH]c4=O)c(C)c(C(C)N4CCOCC4)n3c2)c1` (stereo not drawn) [Example 95] was tested, and the IC50 was < 100 nM. For `COc1cccc(-c2cc3cc(C(=O)NCc4c(C)cc(C)[nH]c4=O)c(C)c(C(C)N4CCOCC4)n3c2)c1` (stereo not drawn) [Example 96, N-((4,6-dimethyl-2-oxo-1,2-dihydropyridin-3-yl)methyl)-2-(3-methoxyphenyl)-6-methyl-5-(1-morpholinylethyl)indolizine-7-carboxamide], the IC50 was < 100 nM. With `CCN1CCN(C(C)c2c(C)c(C(=O)NCc3c(C)cc(C)[nH]c3=O)cc3cc(Br)cn23)CC1` (stereo not drawn) [Example 98, N-((4,6-dimethyl-2-oxo-1,2-dihydropyridin-3-yl)methyl)-6-methyl-5-(1-(4-methylpiperazine)-1-ethyl)-2-bromoindolizine-7-carboxamide] the IC50 was 100 to 1000 nM. In the case of `CCN1CCN(C(C)c2c(C)c(C(=O)NCc3c(C)cc(C)[nH]c3=O)cc3cc(Br)cn23)CC1` (stereo not drawn) [Example 99, N-((4,6-dimethyl-2-oxo-1,2-dihydropyridin-3-yl)methyl)-6-methyl-5-(1-(4-ethylpiperazine)-1-ethyl)-2-bromoindolizine-7-carboxamide], the IC50 is reported as 100 to 1000 nM. For `Cc1cc(C)c(CNC(=O)c2cc3cc(Br)cn3c(C(C)N3CCN(C(=O)CO)CC3)c2C)c(=O)[nH]1` (stereo not drawn) [Example 101], the IC50 was 100 to 1000 nM. `Cc1cc(C)c(CNC(=O)c2cc3cc(Br)cn3c(C(C)N3CCN(C(=O)CO)CC3)c2C)c(=O)[nH]1` (stereo not drawn) [Example 102] showed an IC50 of 1000 to 10000 nM.
